Experimental data from PubChem BioAssay (NCI).
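Cells were grown in 96-well plates and exposed to each compound for 48 hours at five concentrations; endpoints were interpolated linearly between bracketing concentrations, or set to the highest concentration if not reached. GI50 marks 50% less growth. Definition used: TGI = concentration required for complete inhibition of growth.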

Key:
Assay in all cases: inhibition of tumour cell growth, NCI panel, 48 h
UACC-62 melanoma = tested on: UACC-62 melanoma
NCI-H226 lung = tested on: NCI-H226 lung
KM12 colon = tested on: KM12 colon
SNB-19 CNS = tested on: SNB-19 CNS
CCRF-CEM leukemia = tested on: CCRF-CEM leukemia
SK-OV-3 ovarian = tested on: SK-OV-3 ovarian
SR leukemia = tested on: SR leukemia
OVCAR-4 ovarian = tested on: OVCAR-4 ovarian
MDA-MB-231 breast = tested on: MDA-MB-231 breast
NCI-H522 lung = tested on: NCI-H522 lung

| SMILES | TGI (UACC-62 melanoma) | TGI (NCI-H226 lung) | TGI (KM12 colon) | TGI (SNB-19 CNS) | TGI (CCRF-CEM leukemia) | TGI (SK-OV-3 ovarian) | TGI (SR leukemia) | TGI (OVCAR-4 ovarian) | TGI (MDA-MB-231 breast) | TGI (NCI-H522 lung) | GI50 (SR leukemia) | GI50 (NCI-H226 lung) | GI50 (KM12 colon) | GI50 (CCRF-CEM leukemia) | GI50 (OVCAR-4 ovarian) | GI50 (NCI-H522 lung) |
| --- | --- | --- | --- | --- | --- | --- | --- | --- | --- | --- | --- | --- | --- | --- | --- | --- |
| OC1c2ccccc2CCC1CN1CCN(CCOC(c2ccc(F)cc2)c2ccc(F)cc2)CC1 (centres undefined) | 27.7 µM | 28.3 µM | > 100 µM | > 100 µM | 15.1 µM | > 100 µM | > 100 µM | > 100 µM | 31.6 µM | 33.6 µM |  |  |  |  |  |  |
| N#CC(N=Nc1ccccc1C(=O)O)C(N)=O (centres undefined) | > 100 µM | > 100 µM | > 100 µM | > 100 µM | > 100 µM |  | > 100 µM | > 100 µM | > 100 µM | > 100 µM |  |  |  |  |  |  |
| COC(=O)/C=C\C(C#N)(C#N)N=Cc1cccc(OC)c1 | 31.8 µM | 28.7 µM | 32.6 µM | 46.3 µM | > 50.8 µM | 47.1 µM | > 24.5 µM | 18.8 µM | 29 µM | 3 µM |  |  |  |  |  |  |
| COc1ccc([N+](=O)[O-])c2c(NCCCN(C)C)ccnc12 | 11.4 µM | 30.2 µM | 24.2 µM | 28.2 µM | 61.9 µM | 43.2 µM | 1.97 µM | 3.69 µM | > 73.8 µM | 3.34 µM |  |  |  |  |  |  |
| CC1(C)[C@@H]2C[C@H]1[C@@H](Cc1cccc(C[C@H]3c4cc(-c5ccccn5)ncc4[C@H]4C[C@@H]3C4(C)C)c1)c1cc(-c3ccccn3)ncc12 | > 100 µM | > 91.2 µM | > 100 µM | > 72.6 µM | > 100 µM | > 100 µM | > 100 µM | > 100 µM | > 100 µM | > 70.8 µM | > 100 µM |  |  |  |  |  |
| CC(O)C1(CNc2cc(Cl)nc(N)n2)CCCCC1 (centres undefined) | > 100 µM | > 100 µM | > 100 µM | > 100 µM | > 100 µM | > 100 µM | > 100 µM | > 100 µM | > 100 µM | > 100 µM |  |  |  |  |  |  |
| COc1ccc(OC)c(NCC(=O)Nn2cnc3ccc(S(=O)(=O)Nc4cc(OC)ccc4OC)cc3c2=O)c1 | > 100 µM | > 100 µM | > 100 µM | > 100 µM | > 100 µM | > 100 µM | > 100 µM | > 100 µM | > 100 µM | > 100 µM |  |  |  |  |  |  |
| O=C(CN(C(=O)OC12CC3CC(CC(C3)C1)C2)C(=O)OC12CC3CC(CC(C3)C1)C2)Oc1ccc([N+](=O)[O-])cc1 | > 100 µM | > 100 µM | > 100 µM | > 100 µM | > 100 µM | > 100 µM | > 100 µM | > 100 µM | > 100 µM | > 100 µM |  |  |  |  |  |  |
| CC1CN=C(NS(=O)(=O)c2cc(C(=O)Nc3ccc(Cl)cc3)c(Cl)cc2S)NN1 (centres undefined) | 84.1 µM | 68.8 µM | 97.1 µM | > 100 µM | > 100 µM | > 100 µM | > 100 µM | > 100 µM | > 100 µM | 64.1 µM |  |  |  |  |  |  |
| Cc1cc(S(=O)(=O)N2CCNNC2=O)c(S)cc1Cl | > 100 µM | > 100 µM | > 100 µM | > 100 µM | > 100 µM |  | > 100 µM | > 100 µM | 61 µM | 66.6 µM |  |  |  |  |  |  |
| S=C(N/N=C(\c1ccccc1)c1ccccn1)NC1CCCCC1 | > 100 µM | > 100 µM | > 100 µM | > 100 µM | > 100 µM | > 100 µM | > 100 µM | > 100 µM | > 100 µM | > 100 µM |  |  |  |  |  |  |
| CCCCn1c(CSc2ccc(Cl)cc2)c(C(=O)OCC)c2cc(OC)c(Br)cc21 | > 100 µM | > 100 µM | > 100 µM | > 100 µM | > 100 µM | > 100 µM | > 100 µM | > 100 µM | > 100 µM | > 100 µM |  |  |  |  |  |  |
| c1cc(-c2ccc(-c3ccc(-c4ccc(-c5ccncc5)o4)cc3)o2)ccn1 | 32.9 µM | 56 µM | 32.2 µM | 39.7 µM | 30.2 µM | 45.2 µM | 58.8 µM | 65.4 µM | 63.8 µM | 31.7 µM |  |  |  |  |  |  |
| CN(C)c1ccc(/C=C/c2ccc(S(N)(=O)=O)cc2)cc1 |  | 33 µM | > 100 µM | 44.9 µM | > 100 µM | 31.4 µM | > 100 µM | 10.1 µM | 34.3 µM | 25.6 µM | 8.58 µM | 12.1 µM | 8.28 µM | 46 µM | 3.35 µM | 6.88 µM |
| COC(=O)c1c(C(=O)OC)c2ccccn2c1-c1cc(OC)c(Br)c(=O)o1 | > 100 µM | > 100 µM | > 100 µM | > 100 µM | > 100 µM | > 100 µM | > 100 µM | > 100 µM | > 100 µM | > 100 µM |  |  |  |  |  |  |
| CCOC(=O)CC(c1ccccc1)C(C)(C(=O)OCC)C(=O)OCC (centres undefined) | > 100 µM | > 100 µM | > 100 µM | > 100 µM | > 100 µM | > 100 µM | > 100 µM | > 100 µM | > 100 µM | > 100 µM |  |  |  |  |  |  |
| NNC(=O)CC(=O)Nc1cccc(Cl)c1 | > 100 µM | > 100 µM | > 100 µM | > 100 µM | > 100 µM | > 100 µM | > 100 µM | > 100 µM | > 100 µM | > 100 µM |  |  |  |  |  |  |
